For this assay, the target named is T1, Human PPARα (Homo sapiens, UniProt Q07869).
T1 construct: host or cells: proprietary non-human mammalian cells
T1 sequence (Q07869 1-468): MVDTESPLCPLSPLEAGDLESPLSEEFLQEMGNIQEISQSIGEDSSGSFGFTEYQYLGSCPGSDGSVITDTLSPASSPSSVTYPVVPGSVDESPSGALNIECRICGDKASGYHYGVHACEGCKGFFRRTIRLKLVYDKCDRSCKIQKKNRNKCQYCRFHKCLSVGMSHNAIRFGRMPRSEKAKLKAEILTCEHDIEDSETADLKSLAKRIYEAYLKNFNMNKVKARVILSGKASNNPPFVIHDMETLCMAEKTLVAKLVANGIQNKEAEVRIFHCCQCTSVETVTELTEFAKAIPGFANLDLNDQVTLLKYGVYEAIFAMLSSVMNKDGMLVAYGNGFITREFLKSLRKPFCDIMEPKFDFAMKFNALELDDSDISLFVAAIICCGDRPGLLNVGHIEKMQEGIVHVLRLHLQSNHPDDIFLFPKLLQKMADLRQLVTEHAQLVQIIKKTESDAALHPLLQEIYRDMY
The experiment in a line: Human PPARα Reporter Assay (luciferase). In kind it is cell-based. The note with it: human PPARα reporter cells, overnight incubation, antagonism; read-out: Luciferase IC50. The method, then: Human PPARα Reporter Assay
The screening of test compounds for agonist or antagonist activities against human PPARα receptors was performed using a commercial kit, Human PPARα Reporter Assay System (Indigo Biosciences, Cat. #IB00111).
This nuclear receptor assay system utilizes proprietary non-human mammalian cells engineered to provide constitutive, high-level expression of Human PPARα. Because these cells incorporate a PPARα-responsive luciferase reporter gene, quantifying expressed luciferase activity provides a sensitive surrogate measure of PPARα activity in the treated cells. The primary application of this reporter assay system is in the screening of test samples to quantify any functional activity, either agonist or antagonist, that they may exert against human PPARα.
Briefly, reporter cells are dispensed into wells of the assay plate and then immediately dosed with test compounds. Following an overnight incubation, the treatment media is discarded and Luciferase Detection Reagent (LDR) is added. The intensity of light emission from the ensuing luciferase reaction provides a sensitive measure that is directly proportional to the relative level of PPARα activation in the reporter cells.
Background: A reporter such as luciferase makes a cellular process visible.

The values that follow come from patent US9505728B2, “Triazolone compounds and uses thereof” (INCEPTION 2, INC., priority 2012, dated 2016).

Turning to `CC(C)(C)c1ccc(Cn2nc(CCCc3ccc(-c4cccc(CC(=O)O)c4)cc3)n(-c3ccccc3)c2=O)cc1` [Example 32, 2-(4′-(3-(1-(4-(tert-Butyl)benzyl)-5-oxo-4-phenyl-4,5-dihydro-1H-1,2,4-triazol-3-yl)propyl)-[1,1′-biphenyl]-3-yl)acetic acid], the IC50 (as a rule, the point on the concentration scale where inhibition reaches its midpoint) worked out at 2990 nM. The value for `CCn1c(CCCc2ccc(-c3ccc(OC)c(NS(=O)(=O)c4ccccc4)n3)cc2)nn(Cc2ccc(C(C)(C)C)cc2)c1=O` [Example 59, 1-{[4-(tert-Butyl)phenyl]methyl}-4-ethyl-3-[3-(4-{5-methoxy-6-[(phenylsulfonyl)amino](2-pyridyl)}phenyl)propyl]-1,2,4-triazolin-5-one] was 3 nM. For `CCn1c(CCCc2ccc(-c3ccc(OC)c(CC(=O)O)c3)cn2)nn(Cc2ccc(C(C)(C)C)cc2)c1=O` [Example 198, 2-(5-(6-(3-(1-(4-(tert-Butyl)benzyl)-4-ethyl-5-oxo-4,5-dihydro-1H-1,2,4-triazol-3-yl)propyl)pyridin-3-yl)-2-methoxyphenyl)acetic acid] the value was 623 nM; for `CCn1c(CCCc2ccc(-c3cccc(CC(=O)O)c3)cc2)nn(Cc2ccc(C3CC3)cc2)c1=O` [Example 22, 2-(4′-(3-(1-(4-Cyclopropylbenzyl)-4-ethyl-5-oxo-4,5-dihydro-1H-1,2,4-triazol-3-yl)propyl)-[1,1′-biphenyl]-3-yl)acetic acid], 612 nM; for `CCn1c(CCCc2ccc(-c3cc(OC)cc(C(=O)O)c3)cc2)nn(Cc2ccc(C(C)(C)C)cc2)c1=O` [Example 193, 3-{4-[3-(1-{[4-(tert-Butyl)phenyl]methyl}-4-ethyl-5-oxo(1,2,4-triazolin-3-yl))propyl]phenyl}-5-methoxybenzoic acid], 21 nM. The value for `CCn1c(CCCc2ccc(-c3ccc(C4(O)CCOCC4)cc3)cc2)nn(Cc2ccc(C(C)(C)C)cc2)c1=O` [Example 187, 1-(4-(tert-Butyl)benzyl)-4-ethyl-3-(3-(4′-(4-hydroxytetrahydro-2H-pyran-4-yl)-[1,1′-biphenyl]-4-yl)propyl)-1H-1,2,4-triazol-5(4H)-one] was 607 nM; that for `CCn1c(CCCc2ccc(-c3ccc4c(c3)C(C(=O)O)CO4)cc2)nn(Cc2ccc(C(C)(C)C)cc2)c1=O` (racemic) [Example 96, (rac)-5-(4-(3-(1-(4-(tert-Butyl)benzyl)-4-ethyl-5-oxo-4,5-dihydro-1H-1,2,4-triazol-3-yl)propyl)phenyl)-2,3-dihydrobenzofuran-3-carboxylic acid] was 272 nM. Consider `CCn1c(CCCc2ccc(-c3cccc(NC(=O)Cc4ccccc4)n3)cc2)nn(Cc2ccc(C(C)(C)C)cc2)c1=O` [Example 101, N-(6-{4-[3-(1-{[4-(tert-Butyl)phenyl]methyl}-4-ethyl-5-oxo(1,2,4-triazolin-3-yl))propyl]phenyl}(2-pyridyl))-2-phenylacetamide], for which the IC50 was determined as 402 nM. For `CCn1c(CCC(F)(F)c2ccc(-c3ccc(C4(F)COC4)cn3)cc2)nn(Cc2ccc(C(C)(C)C)cc2)c1=O` [Example 195, 1-(4-(tert-Butyl)benzyl)-3-(3,3-difluoro-3-(4-(5-(3-fluorooxetan-3-yl)pyridine-2-yl)phenyl)propyl)-4-ethyl-1H-1,2,4-triazol-5(4H)-one] the value was 49 nM; for `CCn1c(CCCc2ccc(-c3ccc(OC)c(C(=O)O)c3)cc2)nn(Cc2ccc(C(C)(C)C)cc2)c1=O` [Example 65, 4′-(3-(1-(4-(tert-Butyl)benzyl)-4-ethyl-5-oxo-4,5-dihydro-1H-1,2,4-triazol-3-yl)propyl)-4-methoxy-[1,1′-biphenyl]-3-carboxylic acid], 6 nM. For `CCn1c(CCCc2ccc(-c3ccc(OC)c(CC(=O)O)c3)cc2)nn(Cc2ccc(C3(F)COC3)cc2)c1=O` [Example 63] the value was 562 nM. The value for `CCn1c(CCCc2ccc(-c3cccc(NS(=O)(=O)c4ccc(-c5ccc(C)cc5)cc4)n3)cc2)nn(Cc2ccc(C(C)(C)C)cc2)c1=O` [Example 73, 1-{[4-(tert-Butyl)phenyl]methyl}-4-ethyl-3-(3-{4-[6-({[4-(4-methylphenyl)phenyl]sulfonyl}amino)(2-pyridyl)]phenyl}propyl)-1,2,4-triazolin-5-one] was 62 nM; that for `CCn1c(CCCc2ccc(-c3cccc(CC(=O)O)c3)cc2)nn(Cc2ccc(C(C)(C)C)s2)c1=O` [Example 54, 2-(4′-(3-(1-((5-(tert-Butyl)thiophen-2-yl)methyl)-4-ethyl-5-oxo-4,5-dihydro-1H-1,2,4-triazol-3-yl)propyl)-[1,1′-biphenyl]-3-yl)acetic acid] was 499 nM. Regarding `CCOc1ccc(-c2ccc(CCCc3nn(Cc4ccc(C(C)(C)C)cc4)c(=O)n3CC)cc2)nc1NS(=O)(=O)c1ccccc1` [Example 62, 1-{[4-(tert-Butyl)phenyl]methyl}-3-[3-(4-{5-ethoxy-6-[(phenylsulfonyl)amino](2-pyridyl)}phenyl)propyl]-4-ethyl-1,2,4-triazolin-5-one], the IC50 amounted to 5 nM. The value for `CCn1c(CCCc2ccc(-c3ccc(NS(=O)(=O)c4ccc5c(c4)CCN5C(C)=O)cn3)cc2)nn(Cc2ccc(C(C)(C)C)cc2)c1=O` [Example 75, 1-Acetyl-5-{[(6-{4-[3-(1-{[4-(tert-butyl)phenyl]methyl}-4-ethyl-5-oxo(1,2,4-triazolin-3-yl))propyl]phenyl}(3-pyridyl))amino]sulfonyl}indoline] was 207 nM. For `COc1ccc(-c2ccc(CCCc3nn(Cc4ccc(C(C)(C)C)cc4)c(=O)n3C)cc2)cc1CC(=O)O` [Example 106, 2-(4′-(3-(1-(4-(tert-Butyl)benzyl)-4-methyl-5-oxo-4,5-dihydro-1H-1,2,4-triazol-3-yl)propyl)-4-methoxy-[1,1′-biphenyl]-3-yl)acetic acid] the value was 26 nM. For `CCCC(=O)Nc1cccc(-c2ccc(CCCc3nn(Cc4ccc(C(C)(C)C)cc4)c(=O)n3CC)cc2)n1` [Example 100, N-(6-{4-[3-(1-{[4-(tert-Butyl)phenyl]methyl}-4-ethyl-5-oxo-1,2,4-triazolin-3-yl)propyl]phenyl}-2-pyridyl)butanamide] the value was 712 nM; for `CCn1c(CCCc2ccc(-c3ccc(OC)c(CNS(C)(=O)=O)c3)cc2)nn(Cc2ccc(C(C)(C)C)cc2)c1=O` [Example 186, 1-{[4-(tert-Butyl)phenyl]methyl}-4-ethyl-3-{3-[4-(4-methoxy-3-{[(methylsulfonyl)amino]methyl}phenyl)phenyl]propyl}-1,2,4-triazolin-5-one], 587 nM. For `CCn1c(CCCc2ccc(-c3cnc(C4(O)COC4)nc3)cc2)nn(Cc2ccc(C(C)(C)C)cc2)c1=O` [Example 173, 1-(4-(tert-Butyl)benzyl)-4-ethyl-3-(3-(4-(2-(3-hydroxyoxetan-3-yl)pyrimidin-5-yl)phenyl)propyl)-1H-1,2,4-triazol-5(4H)-one], the IC50 came out at 126 nM. On to `CCn1c(CCCc2ccc(-c3ccc(C(O)C(=O)NC4CC4)cc3)cc2)nn(Cc2ccc(C(C)(C)C)cc2)c1=O` (stereo not drawn) [Example 51, 2-(4′-(3-(1-(4-(tert-Butyl)benzyl)-4-ethyl-5-oxo-4,5-dihydro-1H-1,2,4-triazol-3-yl)propyl)-[1,1′-biphenyl]-4-yl)-N-cyclopropyl-2-hydroxyacetamide], for which the IC50 amounted to 292 nM. For `CCn1c(CCCc2ccc(-c3ccc(OC)c(CC(=O)O)c3)c(O)c2)nn(Cc2ccc(C(C)(C)C)cc2)c1=O` [Example 145, 2-(4′-(3-(1-(4-(tert-Butyl)benzyl)-4-ethyl-5-oxo-4,5-dihydro-1H-1,2,4-triazol-3-yl)propyl)-2′-hydroxy-4-methoxy-[1,1′-biphenyl]-3-yl) acetic acid] the value was 692 nM. The value for `CCn1c(CCCc2ccc(-c3cccc(NC(=O)C4CC4)n3)cc2)nn(Cc2ccc(C(C)(C)C)cc2)c1=O` [Example 102, N-(6-{4-[3-(1-{[4-(tert-Butyl)phenyl]methyl}-4-ethyl-5-oxo(1,2,4-triazolin-3-yl))propyl]phenyl}(2-pyridyl))cyclopropylcarboxamide] was 695 nM; that for `CCn1c(CCCc2ccc(-c3ccc(OC)c(NS(=O)(=O)c4ccc(C(F)(F)F)cc4)n3)cc2)nn(Cc2ccc(C(C)(C)C)cc2)c1=O` [Example 88, 1-{[4-(tert-Butyl)phenyl]methyl}-4-ethyl-3-(3-{4-[5-methoxy-6-({[4-(trifluoromethyl)phenyl]sulfonyl}amino)(2-pyridyl)]phenyl}propyl)-1,2,4-triazolin-5-one] was 24 nM; that for `CCn1c(CCCc2ccc(-c3ccc(C(F)(F)F)c(N)c3)cc2)nn(Cc2ccc(C(C)(C)C)cc2)c1=O` [Example 148, 3-(3-(3′-Amino-4′-(trifluoromethyl)-[1,1′-biphenyl]-4-yl)propyl)-1-(4-(tert-butyl)benzyl)-4-ethyl-1H-1,2,4-triazol-5(4H)-one] was 241 nM.
